Test results published in patent publication US9580390B2, “Indazole compounds as kinase inhibitors and method of treating cancer with same” (University Health Network, priority 2011, dated 2017).

Tests used:
[1] = tested on: ovarian cancer cells (PA-1); experiment: Cancer cell line growth inhibition (SRB assay); assay type: cell-based; details: PA-1 ovarian cancer cells, SRB assay; read-out: Cancer Cell Line GI50 Range PA-1
[2] = tested on: colon cancer cells (HCT116); experiment: Cancer cell line growth inhibition (SRB assay); assay type: cell-based; details: Homo sapiens, HCT-116; HCT116 colon cancer cells, SRB assay; read-out: Cancer Cell Line GI50 Range HCT116

Row | SMILES | GI50 [1] [nM] | GI50 [2] [nM]
1 | CCc1cccc(CC)c1NC(=O)Nc1ccc2[nH]nc(-c3ccc4c(c3)CN(C)CCO4)c2c1 [Example A114, 1-(2,6-diethylphenyl)-3-(3-(4-methyl-2,3,4,5-tetrahydrobenzo[f][1,4]oxazepin-7-yl)-1H-indazol-5-yl)urea] | > 500 | > 500
2 | COC1CCN(c2ccc(-c3n[nH]c4ccc(NC(=O)C(c5ccsc5)N5CCCC5)cc34)cc2)CC1 (centres unmarked) [Example A116, N-(3-(4-(4-methoxypiperidin-1-yl)phenyl)-1H-indazol-5-yl)-2-(pyrrolidin-1-yl)-2-(thiophen-3-yl)acetamide] | 100 to 500 | 100 to 500
3 | Cc1ccccc1C(NC(=O)c1ccc2[nH]nc(-c3ccc(N4CCOCC4)cc3)c2c1)C1CC1 (centres unmarked) [Example A119, N-(cyclopropyl(o-tolyl)methyl)-3-(4-morpholinophenyl)-1H-indazole-5-carboxamide] | 100 to 500 | 100 to 500
4 | O=C(Nc1ccc2[nH]nc(-c3ccc(N4CC(O)C4)cc3)c2c1)C(c1ccsc1)N1CCCC1 (centres unmarked) [Example A120, N-(3-(4-(3-Hydroxyazetidin-1-yl)phenyl)-1H-indazol-5-yl)-2-(pyrrolidin-1-yl)-2-(thiophen-3-yl)acetamide] | < 100 | < 100
5 | CN1CCC(Oc2ccc(-c3n[nH]c4ccc(C(=O)NC(c5ccsc5)C5CCC5)cc34)cc2)CC1 (centres unmarked) [Example A121, N-(cyclobutyl(thiophen-3-yl)methyl)-3-(4-((1-methylpiperidin-4-yl)oxy)phenyl)-1H-indazole-5-carboxamide] | < 100 | < 100
6 | O=C(NC(c1ccccc1)C1CC1)c1ccc2[nH]nc(-c3ccc(OC4CCN(CCF)CC4)cc3)c2c1 (centres unmarked) [Example A122, N-(cyclopropyl(phenyl)methyl)-3-(4-((1-(2-fluoroethyl)piperidin-4-yl)oxy)phenyl)-1H-indazole-5-carboxamide] | 100 to 500 | 100 to 500
7 | O=C(NC(c1ccsc1)C1CCC1)c1ccc2[nH]nc(-c3ccc(N4CCOCC4)cc3)c2c1 (centres unmarked) [Example A123, N-(cyclobutyl(thiophen-3-yl)methyl)-3-(4-morpholinophenyl)-1H-indazole-5-carboxamide] | < 100 | 100 to 500
8 | CCc1cccc(CC)c1NC(=O)Nc1ccc2[nH]nc(-c3ccc(C4CN(C)CCO4)cc3)c2c1 (centres unmarked) [Example A124, 1-(2,6-diethylphenyl)-3-(3-(4-(4-methylmorpholin-2-yl)phenyl)-1H-indazol-5-yl)urea] | 100 to 500 | 100 to 500
9 | CN1CCC(Oc2ccc(-c3n[nH]c4ccc(C(=O)N[C@@H](CCO)c5ccccc5)cc34)cc2)CC1 [Example A125, (S)-N-(3-hydroxy-1-phenylpropyl)-3-(4-((1-methylpiperidin-4-yl)oxy)phenyl)-1H-indazole-5-carboxyamide] | 100 to 500 | 100 to 500
10 | O=CN1CCC(Oc2ccc(-c3n[nH]c4ccc(C(=O)NC(c5ccccc5)C5CC5)cc34)cc2)CC1 (centres unmarked) [Example A126, N-(cyclopropyl(phenyl)methyl)-3-(4-((1-formylpiperidin-4-yl)oxy)phenyl)-1H-indazole-5-carboxamide] | 100 to 500 | 100 to 500
11 | CN1CCOC(c2ccc(-c3n[nH]c4ccc(C(=O)NC(c5ccccc5)C5CC5)cc34)cc2)C1 (centres unmarked) [Example A139, N-(cyclopropyl(phenyl)methyl)-3-(4-(4-methylmorpholin-2-yl)phenyl)-1H-indazole-5-carboxamide] | 100 to 500 | 100 to 500
12 | O=C(NC(c1ccccc1)C1CC1)c1ccc2[nH]nc(-c3ccc(OCCN4CCOCC4)cc3)c2c1 (centres unmarked) [Example A140, N-(cyclopropyl(phenyl)methyl)-3-(4-(2-morpholinoethoxy)phenyl)-1H-indazole-5-carboxamide] | 100 to 500 | 100 to 500

Second part, the compound after the results:

Row | GI50 [1] [nM] | GI50 [2] [nM] | SMILES
13 | 100 to 500 | 100 to 500 | Cc1ccccc1C(NC(=O)c1ccc2[nH]nc(-c3ccc(N4CC(O)C4)cc3)c2c1)C1CC1 (centres unmarked) [Example A141, N-(cyclopropyl(o-tolyl)methyl)-3-(4-(3-hydroxyazetidin-1-yl)phenyl)-1H-indazole-5-carboxamide]
14 | > 500 | 100 to 500 | CN1CCC(Oc2ccc(-c3n[nH]c4ccc(C(=O)NCc5ccccc5CO)cc34)cc2)CC1 [Example A142, N-(2-(hydroxymethyl)benzyl)-3-(4-((1-methylpiperidin-4-yl)oxy)phenyl)-1H-indazole-5-carboxamide]
15 | 100 to 500 | 100 to 500 | Cc1ccccc1C(NC(=O)c1ccc2[nH]nc(-c3ccc(OC4CCN(C)CC4)cc3)c2c1)C(C)C (centres unmarked) [Example A143, N-(2-methyl-1-(o-tolyl)propyl)-3-(4-((1-methylpiperidin-4-yl)oxy)phenyl)-1H-indazole-5-carboxamide]
16 | 100 to 500 | 100 to 500 | CO[C@@H](C(=O)Nc1ccc2[nH]nc(-c3ccc(OCC4CCN(C)CC4)cc3)c2c1)c1ccccc1 [Example A145, (R)-2-methoxy-N-(3-(4-((1-methylpiperidin-4-yl)methoxy)phenyl)-1H-indazol-5-yl)-2-phenylacetamide]
17 | 100 to 500 | > 500 | CN1CCC(Oc2ccc(-c3n[nH]c4ccc(NC(=O)C5OCCc6ccccc65)cc34)cc2)CC1 (centres unmarked) [Example A146, N-(3-(4-(1-Methylpiperidin-4-yloxy)phenyl)-1H-indazol-5-yl)isochroman-1-carboxamide]
18 | 100 to 500 | 100 to 500 | CCC(NC(=O)c1ccc2[nH]nc(-c3ccc(OC4CCN(CCOC)CC4)cc3)c2c1)c1ccccc1 (centres unmarked) [Example A153, 3-(4-((1-(2-methoxyethyl)piperidin-4-yl)oxy)phenyl)-N-(1-phenylpropyl)-1H-indazole-5-carboxamide]
19 | 100 to 500 | 100 to 500 | CN(C)C(=O)CN1CCC(Oc2ccc(-c3n[nH]c4ccc(C(=O)NC(c5ccccc5)C5CC5)cc34)cc2)CC1 (centres unmarked) [Example A158, N-(cyclopropyl(phenyl)methyl)-3-(4-((1-(2-(dimethylamino)-2-oxoethyl)piperidin-4-yl)oxy)phenyl)-1H-indazole-5-carboxamide]
20 | 100 to 500 | 100 to 500 | COCCN1CCC(Oc2ccc(-c3n[nH]c4ccc(C(=O)NC(c5ccccc5)C5CCCC5)cc34)cc2)CC1 (centres unmarked) [Example A161, N-(cyclopentyl(phenyl)methyl)-3-(4-((1-(2-methoxyethyl)piperidin-4-yl)oxy)phenyl)-1H-indazole-5-carboxamide]
21 | 100 to 500 | 100 to 500 | COCCN1CCC(Oc2ccc(-c3n[nH]c4ccc(C(=O)N[C@H](COC)c5ccccc5)cc34)cc2)CC1 [Example A164, (S)-N-(2-methoxy-1-phenylethyl)-3-(4-((1-(2-methoxyethyl)piperidin-4-yl)oxy)phenyl)-1H-indazole-5-carboxamide]
22 | 100 to 500 | 100 to 500 | CC[C@@H](NC(=O)c1ccc2[nH]nc(-c3ccc(OC4CCN(C5COC5)CC4)cc3)c2c1)c1ccccc1Cl [Example A192, (R)-N-(1-(2-chlorophenyl)propyl)-3-(4-((1-(oxetan-3-yl)piperidin-4-yl)oxy)phenyl)-1H-indazole-5-carboxamide]
23 | 100 to 500 | 100 to 500 | COc1cc(-c2n[nH]c3ccc(C(=O)NC(c4ccccc4)C4CC4)cc23)ccc1OC1CCN(C2COC2)CC1 (centres unmarked) [Example A194, N-(cyclopropyl(phenyl)methyl)-3-(3-methoxy-4-((1-(oxetan-3-yl)piperidin-4-yl)oxy)phenyl)-1H-indazole-5-carboxamide]
24 | 100 to 500 | 100 to 500 | COc1cc(-c2n[nH]c3ccc(C(=O)NC(c4ccccn4)C4CC4)cc23)ccc1OC1CCN(C2COC2)CC1 (centres unmarked) [Example A195, N-(cyclopropyl(pyridin-2-yl)methyl)-3-(3-methoxy-4-((1-(oxetan-3-yl)piperidin-4-yl)oxy)phenyl)-1H-indazole-5-carboxamide]
25 | < 100 | < 100 | O=C(N[C@@H](c1ccccn1)C1CC1)c1ccc2[nH]nc(-c3ccc(OC4CCN(C5COC5)CC4)cc3)c2c1 [Example A196, (R)-N-(cyclopropyl(pyridin-2-yl)methyl)-3-(4-((1-(oxetan-3-yl)piperidin-4-yl)oxy)phenyl)-1H-indazole-5-carboxamide]
26 | 100 to 500 | 100 to 500 | CN1CCC(Oc2ccc(-c3n[nH]c4ccc(C(=O)NC(c5ccccc5Cl)C5CCCC5)cc34)cc2)CC1 (centres unmarked) [Example A199, N-((2-chlorophenyl)(cyclopentyl)methyl)-3-(4-((1-methylpiperidin-4-yl)oxy)phenyl)-1H-indazole-5-carboxamide]
27 | 100 to 500 | 100 to 500 | O=CN1CCC(Oc2ccc(-c3n[nH]c4ccc(C(=O)N[C@@H](c5ccccn5)C5CC5)cc34)cc2)CC1 [Example A203, (R)-N-(cyclopropyl(pyridin-2-yl)methyl)-3-(4-((1-formylpiperidin-4-yl)oxy)phenyl)-1H-indazole-5-carboxamide]
28 | 100 to 500 | 100 to 500 | COc1cc(-c2n[nH]c3ccc(C(=O)NC(c4ccccc4)C4CC4)cc23)ccc1OC1CCN(C=O)CC1 (centres unmarked) [Example A205, N-(cyclopropyl(phenyl)methyl)-3-(4-((1-formylpiperidin-4-yl)oxy)-3-methoxyphenyl)-1H-indazole-5-carboxamide]
29 | 100 to 500 | 100 to 500 | COc1cc(-c2n[nH]c3ccc(C(=O)NC(c4ccccn4)C4CC4)cc23)ccc1OC1CCN(C=O)CC1 (centres unmarked) [Example A206, N-(cyclopropyl(pyridin-2-yl)methyl)-3-(4-((1-formylpiperidin-4-yl)oxy)-3-methoxyphenyl)-1H-indazole-5-carboxamide]
30 | 100 to 500 | 100 to 500 | CN1CCC(Oc2ccc(-c3n[nH]c4ccc(C(=O)NCC(c5ccccc5)C5CCCC5)cc34)cc2)CC1 (centres unmarked) [Example A207, N-(2-cyclopentyl-2-phenylethyl)-3-(4-((1-methylpiperidin-4-yl)oxy)phenyl)-1H-indazole-5-carboxamide]
31 | 100 to 500 | 100 to 500 | O=C(NC(c1ccccn1)C1CC1)c1ccc2[nH]nc(-c3ccc(OC4CN(C5COC5)C4)cc3)c2c1 (centres unmarked) [Example A209, N-(cyclopropyl(pyridin-2-yl)methyl)-3-(4-((1-(oxetan-3-yl)azetidin-3-yl)oxy)phenyl)-1H-indazole-5-carboxamide]
